# Legend:
# Assay type in all cases: in vivo
# rice (Oryza sativa) = assay: Test B flooded paddy test; conditions: for Plant response rating, Flood, Rice: 250 g ai/ha, flooded paddy test, visual rating on 0 to 100 scale (0 no effect, 100 complete control) after 13 to 15 days; for Plant response rating, Rice: Flood (flooded paddy test), 13 to 15 days
# Method in brief: (§1)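 Visual scores run from 0 (no effect) to 100 (complete control), assigned by comparison with controls 13 to 15 days after treatment. Test compounds went straight into water standing 3 cm above the soil, around plants at the 2-leaf stage kept in a greenhouse.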
# [1] = system: barnyardgrass (Echinochloa crus-galli); assay: Test B flooded paddy test; conditions: for Plant response rating, Flood, Barnyardgrass: 250 g ai/ha, flooded paddy test, visual rating on 0 to 100 scale (0 no effect, 100 complete control) after 13 to 15 days; for Plant response rating, Barnyardgrass: Flood (flooded paddy test), 13 to 15 days
# Method in brief: as §1
# [2] = system: ducksalad (Heteranthera limosa); assay: Test B flooded paddy test; conditions: for Plant response rating, Flood, Ducksalad: 250 g ai/ha, flooded paddy test, visual rating on 0 to 100 scale (0 no effect, 100 complete control) after 13 to 15 days; for Plant response rating, Ducksalad: Flood (flooded paddy test), 13 to 15 days
# Method in brief: as §1
# [3] = system: umbrella sedge (Cyperus difformis); assay: Test B flooded paddy test; conditions: for Plant response rating, Flood, Sedge, Umbrella: 250 g ai/ha, flooded paddy test, visual rating on 0 to 100 scale (0 no effect, 100 complete control) after 13 to 15 days; for Plant response rating, Sedge, Umbrella: Flood (flooded paddy test), 13 to 15 days
# Method in brief: as §1
# corn (Zea mays) = assay: Test A pre-/postemergence plant response; conditions: for Corn plant response rating: visual injury, 0 to 100 scale (0 no effect, 100 complete control), approx. ten days
# Method in brief: (§2)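 Formulated test chemicals (non-phytotoxic solvent, surfactant) were sprayed onto soil right after planting and simultaneously onto young plants at one to two leaves, 2 to 10 cm tall. Plants stayed in the greenhouse about ten days; injury was then visually scored against untreated controls, from 0 (no effect) to 100 (complete control).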
# [4] = system: velvetleaf (Abutilon theophrasti); assay: Test A pre-/postemergence plant response
# Method in brief: as §2
# [5] = system: large crabgrass (Digitaria sanguinalis); assay: Test A pre-/postemergence plant response; conditions: for Crabgrass, Large plant response rating: visual injury, 0 to 100 scale (0 no effect, 100 complete control), approx. ten days
# Method in brief: as §2
# [6] = system: barnyardgrass (Echinochloa crus-galli); assay: Test A pre-/postemergence plant response; conditions: for Barnyardgrass plant response rating: visual injury, 0 to 100 scale (0 no effect, 100 complete control), approx. ten days
# Method in brief: as §2
# [7] = system: morningglory (Ipomoea spp.); assay: Test A pre-/postemergence plant response
# Method in brief: as §2
# [8] = system: wheat (Triticum aestivum); assay: Test A pre-/postemergence plant response
# Method in brief: as §2
# [9] = system: pigweed (Amaranthus retroflexus); assay: Test A pre-/postemergence plant response
# Method in brief: as §2
# [10] = system: giant foxtail (Setaria faberii); assay: Test A pre-/postemergence plant response
# Method in brief: as §2
# [11] = 62 g ai/ha, scale of 0 to 100 where 0 is no effect and 100 is complete control
# [12] = 125 g ai/ha, scale 0 to 100, 0 is no effect, 100 is complete control
# [13] = Flood, 31 g ai/ha, scale 0 to 100 (0 no effect, 100 complete control)
# [14] = Postemergence, 125 g ai/ha, 0 to 100 scale where 0 is no effect and 100 is complete control
# [15] = Preemergence, 125 g ai/ha, 0 to 100 scale where 0 is no effect and 100 is complete control, approximately ten days
# [16] = Preemergence, 500 g ai/ha, 0 to 100 scale, 0 = no effect, 100 = complete control
# [17] = Postemergence, 125 g ai/ha, visual injury, 0 to 100 scale (0 no effect, 100 complete control), approx. ten days
# [18] = Postemergence, 500 g ai/ha, visual injury, 0 to 100 scale (0 no effect, 100 complete control), approx. ten days
compound,measurement,setting,value
O=C(C1=C(O)C2CCC(C2)C1=O)c1cnc(-c2cc(F)c(F)c(F)c2)n(C2CCCCC2)c1=O (stereo not shown) [Compound 251],"Plant response rating, Flood, Rice",rice (Oryza sativa),10
same,"Plant response rating, Rice",rice (Oryza sativa); [11],0
same,"Plant response rating, Rice",rice (Oryza sativa); [12],0
same,Rice plant response rating,rice (Oryza sativa); [13],0
same,"Plant response rating, Flood, Barnyardgrass",[1],20
same,"Plant response rating, Barnyardgrass",[1]; [11],0
same,"Plant response rating, Barnyardgrass",[1]; [12],0
same,Barnyardgrass plant response rating,[1]; [13],0
same,"Plant response rating, Flood, Ducksalad",[2],80
same,"Plant response rating, Ducksalad",[2]; [11],0
same,"Plant response rating, Ducksalad",[2]; [12],50
same,Ducksalad plant response rating,[2]; [13],0
same,"Plant response rating, Flood, Sedge, Umbrella",[3],75
same,"Plant response rating, Sedge, Umbrella",[3]; [11],50
same,"Plant response rating, Sedge, Umbrella",[3]; [12],65
same,"Sedge, Umbrella plant response rating",[3]; [13],0
same,"Plant response rating, Corn",corn (Zea mays); [14],0
same,Corn plant response rating,"corn (Zea mays); Postemergence, 500 g ai/ha",20
same,"Plant response rating, Corn",corn (Zea mays); [15],0
same,"Plant response rating, Corn",corn (Zea mays); [16],0
same,"Plant response rating, Velvetleaf",[4]; [17],100
same,Velvetleaf plant response rating,[4]; [18],100
same,"Plant response rating, Velvetleaf",[4]; [15],50
same,"Plant response rating, Velvetleaf",[4]; [16],70
same,"Plant response rating, Crabgrass, Large",[5]; [14],50
same,"Crabgrass, Large plant response rating","[5]; Postemergence, 500 g ai/ha",90
same,"Plant response rating, Crabgrass, Large",[5]; [15],20
same,"Plant response rating, Crabgrass, Large",[5]; [16],80
same,"Plant response rating, Barnyardgrass",[6]; [14],80
same,Barnyardgrass plant response rating,"[6]; Postemergence, 500 g ai/ha",100
same,"Plant response rating, Barnyardgrass",[6]; [15],0
same,"Plant response rating, Barnyardgrass",[6]; [16],20
same,"Plant response rating, Morningglory",[7]; [17],100
same,Morningglory plant response rating,[7]; [18],100
same,"Plant response rating, Morningglory",[7]; [15],0
same,"Plant response rating, Morningglory",[7]; [16],40
same,"Plant response rating, Wheat",[8]; [17],0
same,Wheat plant response rating,[8]; [18],10
same,"Plant response rating, Wheat",[8]; [15],0
same,"Plant response rating, Wheat",[8]; [16],0
same,"Plant response rating, Pigweed",[9]; [17],70
same,Pigweed plant response rating,[9]; [18],80
same,"Plant response rating, Pigweed",[9]; [15],0
same,"Plant response rating, Pigweed",[9]; [16],60
same,"Plant response rating, Foxtail, Giant",[10]; [17],50
same,"Foxtail, Giant plant response rating",[10]; [18],90
same,"Plant response rating, Foxtail, Giant",[10]; [15],10
same,"Plant response rating, Foxtail, Giant",[10]; [16],40
O=C(C1=C(O)C2CCC(C2)C1=O)c1cnc(-c2cccc(Br)c2)n(C2CCCCC2)c1=O (stereo not shown) [Compound 252],"Plant response rating, Flood, Rice",rice (Oryza sativa),0
same,"Plant response rating, Rice",rice (Oryza sativa); [11],0
same,"Plant response rating, Flood, Barnyardgrass",[1],0
same,"Plant response rating, Barnyardgrass",[1]; [11],0
same,"Plant response rating, Flood, Ducksalad",[2],0
same,"Plant response rating, Ducksalad",[2]; [11],0
same,"Plant response rating, Flood, Sedge, Umbrella",[3],0
same,"Plant response rating, Sedge, Umbrella",[3]; [11],0
same,"Plant response rating, Corn",corn (Zea mays); [14],0
same,Corn plant response rating,"corn (Zea mays); Postemergence, 500 g ai/ha",10
same,"Plant response rating, Corn",corn (Zea mays); [15],0
same,"Plant response rating, Corn",corn (Zea mays); [16],0
same,"Plant response rating, Velvetleaf",[4]; [17],70
same,Velvetleaf plant response rating,[4]; [18],90
same,"Plant response rating, Velvetleaf",[4]; [15],20
same,"Plant response rating, Velvetleaf",[4]; [16],50
same,"Plant response rating, Crabgrass, Large",[5]; [14],30
same,"Crabgrass, Large plant response rating","[5]; Postemergence, 500 g ai/ha",60
same,"Plant response rating, Crabgrass, Large",[5]; [15],10
same,"Plant response rating, Crabgrass, Large",[5]; [16],20
same,"Plant response rating, Barnyardgrass",[6]; [14],80
same,Barnyardgrass plant response rating,"[6]; Postemergence, 500 g ai/ha",90
same,"Plant response rating, Barnyardgrass",[6]; [15],0
same,"Plant response rating, Barnyardgrass",[6]; [16],0
same,"Plant response rating, Morningglory",[7]; [17],80
same,Morningglory plant response rating,[7]; [18],100
same,"Plant response rating, Morningglory",[7]; [15],0
same,"Plant response rating, Morningglory",[7]; [16],10
same,"Plant response rating, Wheat",[8]; [17],0
same,Wheat plant response rating,[8]; [18],10
same,"Plant response rating, Wheat",[8]; [15],0
same,"Plant response rating, Wheat",[8]; [16],0
same,"Plant response rating, Pigweed",[9]; [17],70
same,Pigweed plant response rating,[9]; [18],90
same,"Plant response rating, Pigweed",[9]; [15],0
same,"Plant response rating, Pigweed",[9]; [16],40
same,"Plant response rating, Foxtail, Giant",[10]; [17],40
same,"Foxtail, Giant plant response rating",[10]; [18],60
same,"Plant response rating, Foxtail, Giant",[10]; [15],0
same,"Plant response rating, Foxtail, Giant",[10]; [16],10

# Reference: patent US8952024B2, “Herbicidal pyrimidone derivatives” (E I du Pont de Nemours and Company, priority 2009, dated 2015)
